Laboratory results as given in article PMC5612656, “In vitro and in vivo effects of 2,4 diaminoquinazoline inhibitors of the decapping scavenger enzyme DcpS: Context-specific modulation of SMN transcript levels” (PLoS ONE, 2017).

Legend:
[1] = cited from earlier work
[2] = test system: Renilla luciferase driven by the CMV promoter; test: Reporter gene assay, CMV-driven Renilla luciferase; format: cell-based; conditions: 24 hrs
Protocol: (§1) The SMN2 reporter cell line was cultured in high-glucose DMEM supplemented with 10% (v/v) fetal bovine serum (FBS) and 1X Penicillin/Streptomycin. Reporter cells media was supplemented with hygromycin during maintenance. All cells were maintained at 37°C and […]. After seeding in 96-well white tissue culture plates at 25,000 per well, cells were incubated overnight before being exposed to different doses of compounds or DMSO for 24 hrs. The final DMSO concentration was kept constant at 0.1% (v/v). Firefly and renilla luciferase expression were assayed with DualGlo (Promega E2920) and measured on a PHERAstar FS microplate reader (BMG Labtech). Relative light units are normalized to DMSO control and expressed as a percentage.

[3] = test system: SMN protein in SMA patient fibroblasts; set-up: method as in PMID 18205293; conditions: cited from earlier work
SMA Δ7 mice = conditions: SMAΔ7 mice; cited from earlier work
Smn mRNA in NSC-34 cells = test system: Smn mRNA in NSC-34 cells; set-up: method as in PMID 18205293; conditions: cited from earlier work
[4] = test system: firefly luciferase driven by the SMN2 promoter and SMN2 splicing cassette; test: SMN2 reporter gene assay, firefly luciferase; format: cell-based; conditions: 24 hrs
Protocol: as §1

[5] = Plasma drug levels after P4-P16 dosing; conditions: FVB/N background, mouse, ip
Description: Personnel conducting studies followed the approved standard operating procedures for daily monitoring, dosing, weaning and euthanasia according to the approved study protocol. […] Line maintenance was maintained by interbreeding of the congenic line and every 4th generation mice were outbred to wild type FBV/N mice (jax # 001800) to reduce the possibility of new mutations within the line. Smn 2B mice were internally developed and maintained in the DiDonato laboratory. To generate the SMA mice used in this study an intercross between Smn 2B/2B and Smn +/- mice was performed. This generated litters in which 50% of the offspring were control (2B/+) and 50% SMA (2B/-). The day of birth was considered to be P0. If pups were born after 3pm, the following day was considered P0. At P1, pups were counted. If greater than 10 pups to a cage, pups were randomly chosen and moved to another cage to increase litter size, culled to reduce litter size or genotyped at P1 and culled at P2 to reduce litter size to 10 or fewer pups. Thereafter, no culling of pups was performed for drug studies. Individual mice were genotyped from DNA obtained from tail snips by polymerase chain reaction (PCR). All mice were weaned at P21 and separated into male and female cages. […] For the PK single dose studies a single ip injection was used. […] Body weights were recorded daily in the AM and dosing volume was adjusted accordingly. […]

Smn protein [6] = test: Smn protein in mouse tissues by Western blot; format: in vivo; conditions: 2B/- SMA mice
Description: (§2) At P1, pups were counted.

[7] = Single dose PK in P13 2B/- SMA and 2B/+ littermate pups
Description: Personnel conducting studies followed the approved standard operating procedures for daily monitoring, dosing, weaning and euthanasia according to the approved study protocol. […] Line maintenance was maintained by interbreeding of the congenic line and every 4th generation mice were outbred to wild type FBV/N mice (jax # 001800) to reduce the possibility of new mutations within the line. Smn 2B mice were internally developed and maintained in the DiDonato laboratory. To generate the SMA mice used in this study an intercross between Smn 2B/2B and Smn +/- mice was performed. This generated litters in which 50% of the offspring were control (2B/+) and 50% SMA (2B/-). The day of birth was considered to be P0. If pups were born after 3pm, the following day was considered P0. At P1, pups were counted. If greater than 10 pups to a cage, pups were randomly chosen and moved to another cage to increase litter size, culled to reduce litter size or genotyped at P1 and culled at P2 to reduce litter size to 10 or fewer pups. Thereafter, no culling of pups was performed for drug studies. Individual mice were genotyped from DNA obtained from tail snips by polymerase chain reaction (PCR). All mice were weaned at P21 and separated into male and female cages. […] For the PK single dose studies a single ip injection was used. For survival studies drug level and tissue harvest mice from P4-P16 treatment, mice were treated twice daily (b.i.d.) via intraperitoneal (i.p.) injection starting on P4 and continuing until P20 or the sacrifice of the animals, whichever occurred sooner. The dosing interval was 12 hours ± 90 minutes. Body weights were recorded daily in the AM and dosing volume was adjusted accordingly. […] At P4, litters were randomized across treatment arms to uniformly control litter size and litter weight as appropriate. Litter size entry was a minimum of 6 and maximum of 10. Litters with average weights at P4 that were greater or less than two stand deviations below the average P4 litter weight of untreated litters were also excluded from study entry. […]

2B/- SMA mice [8] = test: Combined 55° negative geotaxis/climb test in 2B/- SMA mice; format: in vivo, mouse
[9] = test system: SMN transcripts in SMA-derived lymphoblasts; test: SMN transcripts by ddPCR in SMA-derived lymphoblasts; format: cell-based, human; conditions: active DAQ-DcpSi vs 7-methyl analogues
[10] = test system: Smn transcripts in spinal cord, skeletal muscle, liver; test: Smn transcripts in mouse tissues by ddPCR; format: in vivo
Description: as §2

[11] = Single dose PK in adult FVB/N wild type mice
Description: Personnel conducting studies followed the approved standard operating procedures for daily monitoring, dosing, weaning and euthanasia according to the approved study protocol. […] Line maintenance was maintained by interbreeding of the congenic line and every 4th generation mice were outbred to wild type FBV/N mice (jax # 001800) to reduce the possibility of new mutations within the line. Smn 2B mice were internally developed and maintained in the DiDonato laboratory. To generate the SMA mice used in this study an intercross between Smn 2B/2B and Smn +/- mice was performed. This generated litters in which 50% of the offspring were control (2B/+) and 50% SMA (2B/-). The day of birth was considered to be P0. If pups were born after 3pm, the following day was considered P0. At P1, pups were counted. If greater than 10 pups to a cage, pups were randomly chosen and moved to another cage to increase litter size, culled to reduce litter size or genotyped at P1 and culled at P2 to reduce litter size to 10 or fewer pups. Thereafter, no culling of pups was performed for drug studies. Individual mice were genotyped from DNA obtained from tail snips by polymerase chain reaction (PCR). All mice were weaned at P21 and separated into male and female cages. […] For the PK single dose studies a single ip injection was used. For survival studies drug level and tissue harvest mice from P4-P16 treatment, mice were treated twice daily (b.i.d.) via intraperitoneal (i.p.) injection starting on P4 and continuing until P20 or the sacrifice of the animals, whichever occurred sooner. The dosing interval was 12 hours ± 90 minutes. Body weights were recorded daily in the AM and dosing volume was adjusted accordingly. […] At P4, litters were randomized across treatment arms to uniformly control litter size and litter weight as appropriate. Litter size entry was a minimum of 6 and maximum of 10. Litters with average weights at P4 that were greater or less than two stand deviations below the average P4 litter weight of untreated litters were also excluded from study entry. All mice within a litter were dosed with only one test article or received no dose at all. Dosers/phenotypic testers were blinded to the test articles being administered. […] Mice meeting humane functional endpoints (30 percent loss of weight for two consecutive days and/or an inability to right within 1 minute or obvious state of distress) were immediately euthanized with CO2 followed by cervical dislocation as a secondary measure. […] Those not used for analyses were also euthanized using CO2 inhalation followed by cervical dislocation as a secondary measure.

2B/- SMA mice [12] = test: Survival and body weight study in 2B/- SMA mice; format: in vivo, mouse; conditions: b.i.d. i.p. P4-P20, RG3039 6 mg/kg, PF-06738066 10 mg/kg, P < 0.0001 Mantel-Cox or Gehan-Breslow-Wilcoxon
N2a cells = test: RNA-Seq (polyA RNA) of N2a neuroblastoma cells; format: cell-based, mouse; conditions: 1 μM
Protocol: Cells were then pelleted and lysed in RLT and the RNA was purified according to the protocol for the Qiagen miRNeasy kit to separate and enrich small RNA and large (>200 nt) fractions separately. […] RNA quality was also validated using qPCR for DcpS responsive genes. RNA fractions were used for cDNA library preparation which was performed using Truseq mRNA v2 reagents or TailorMix miRNA reagents (RS-122-2101 Illumina, San Diego CA, USA and TM302 Seqmatic, Fremont CA, USA). Libraries were run on a Nextseq 500 (Illumina) using a paired-end run (2x75bp) generating ~60 million reads per library for the mRNA-seq and 1x75bp generating ~5 million reads per library for the miRNA-seq. Demultiplexing, alignment, and differential analysis for the mRNA-seq were performed as described below. For the miRNA alignment, briefly the sequences between 16 and 35 nucleotides with average phred score ≥ 30 were retained for analysis. The reads were first mapped to mouse miRNAs using Bowtie without allowing for mismatches. Instead of discarding the remaining reads, we explored the possibilities of RNA editing to include potential isomiRs. These reads were mapped to miRNAs that have at most 1 base mismatch, a substitution at the 5’ or 3’ ends, or have 1 or 2 extra bases at either ends. Although 1 base mismatch would include 1 base substitution/deletion/addition at the ends, we made sure that 1 base mismatch was inside the miRNA and that all categories were mutually exclusive. Reads mapping to protein coding exons and other small RNAs were removed prior to mapping to miRNAs. Reads that uniquely mapped to miRNAs were considered and were profiled as: 1) identical to miRNAs, 2) perfect match to miRNAs but are of shorter length (no more than 5 bases short), 3) mapping to miRNAs with 1 substitution, 1 or 2 extra bases at 3’ and 5’ ends and with those with at most 1 mismatch (occurring inside the sequence and not on ends), 4) mapping to the precursor miRNA. Thus, steps 2–4 constitute “IsomiRs”-alternative forms of the mature miRNAs. We merged the counts of reads identical to a miR and those mapping to isomeric forms as they are found to have identical/very similar functions. The unaligned reads were mapped to the mouse genome and an internally developed database of rRNAs from bacteria, fungi, plant and eukaryotes to detect presence of contaminants. For differential analysis of miRNAs, only those with counts of ≥5 in at least 1/3rd samples (treatment vs control) were considered for analysis. The counts were normalized and analyzed using EdgeR [19] packages in R-Bioconductor. The P-values were corrected by FDR for multiple testing and miRNAs with FDR ≤15% and |FC|>1.5 were considered to be differentially expressed.
The differentially regulated gene lists for both the spinal cord mRNA-seq and the N2a mRNA-seq results with a corrected P-value less than 0.05 were loaded into IPA and analyzed against the Ingenuity Knowledgebase, Ingenuity Expert Information, and with experimentally observed confidence.

recombinant human DcpS = target: T1, recombinant human DcpS (Homo sapiens, UniProt Q96C86); test: in vitro DcpS inhibition assay (m7GpppA-biotin substrate, ADP-biotin detection); format: biochemical; conditions: mean of two or more independent assays
T1 sequence (Q96C86 1-337): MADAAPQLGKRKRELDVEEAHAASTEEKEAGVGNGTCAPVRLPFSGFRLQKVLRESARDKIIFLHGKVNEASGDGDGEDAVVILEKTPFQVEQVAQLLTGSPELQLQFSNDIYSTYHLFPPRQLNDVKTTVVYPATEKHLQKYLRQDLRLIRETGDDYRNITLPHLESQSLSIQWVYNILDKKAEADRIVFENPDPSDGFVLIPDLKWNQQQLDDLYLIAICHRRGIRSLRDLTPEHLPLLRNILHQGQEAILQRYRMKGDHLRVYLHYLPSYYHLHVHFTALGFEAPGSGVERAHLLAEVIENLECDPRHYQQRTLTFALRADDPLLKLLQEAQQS
Protocol: Incubations were initiated by the addition of 50 nM m7GpppA-biotin substrate and proceeded for 45 min at room temperature before being terminated by the addition of 1 μM D156844 [11]. Production of ADP-biotin was quantitated by transferring 18 μl of the quenched reaction (or biotin-ADP standard) to a streptavidin-coated plate (Pierce), incubating for 2 hours then washing 3 times followed by detection using an anti-ADP mouse antibody (Bellbrook lab) and an HRP-conjugated Goat anti-mouse IgG (Invitrogen).

SMN protein [13] = test: SMN protein by Western blot in SMA cells (fibroblasts, lymphoblasts, iPS-derived neural progenitor cells); format: cell-based, human; conditions: 24 hours to 7 days
Protocol: Lysates were incubated at 95°C for 5 minutes and cleared at 14,000 RPM for 15 minutes. Cleared lysates were quantified by BCA assay. A total of 5 μg of each lysate was mixed with NuPage LDS sample buffer with […] and loaded and separated on a NuPage 10% Bis-Tris gel. Proteins were transferred to 0.2 micron nitrocellulose using the BioRad Turbo Transfer system.

[14] = P16, Fisher's exact test P-value = 0.0708
[15] = adult FVB/N mice, 30 mg/kg i.p.

For `Nc1nc(N)c2c(OCC3CCN(Cc4ccccc4F)CC3)cccc2n1` [D156844], the “physicochemical character (lipophilicity, basicity)” value [1] is listed as “highly lipophilic and dibasic”, the “effect on CMV-driven Renilla luciferase activity” value [2] is listed as “strong effect” and the SMN protein levels [3] is listed as “raised SMN protein levels”. The “numbers of SMN-positive nuclear foci (gems)” value [3] was “dramatically increased”, the “SMN2 or SMNΔ7 transcript levels or SMN protein in CNS tissues” value (SMA Δ7 mice) was “no statistically significant effect” and the snRNP assembly (SMA Δ7 mice) was “nor did it have any statistically significant effect”. The “endogenous mouse Smn mRNA” value (Smn mRNA in NSC-34 cells) was “elevated the endogenous mouse Smn mRNA”.

For `CC(C)c1cc(C(=O)Nc2ccc(F)c(Cl)c2)no1` [LDN-75654], the “effect on SMN2-driven firefly luciferase activity” value [4] was “strong positive effect” and the “effect on CMV-driven Renilla luciferase activity” value [2] was “much weaker”.

In the case of `N#Cc1cc(F)cc(OCc2cccc3nc(N)nc(N)c23)c1` [PF-06738066], the concentration at 12 h [5] is reported as 184 ± 76 nM, the “Smn protein levels in muscle” value (Smn protein [6]) is reported as “small but significant increase in muscle” and the “Smn protein levels in spinal cord” value (Smn protein [6]) is reported as “significant decrease in spinal cord”. For the same molecule, the “free drug levels in brain lower than in plasma” value ([7]; 2B/- SMA pups, P13, 10 mg/kg i.p.) was 3–4 fold, the concentration at 12 h ([7]; FVB/N background, mouse, brain, intraperitoneal, 10 mg/kg) was about 7 nM and the “drug exposures in SMA pups compared to healthy littermates” value ([7]; P13, 10 mg/kg i.p.) was “somewhat higher in SMA pups”. For the same molecule, the “simultaneous pass rate, 55° negative geotaxis and climb test” value (2B/- SMA mice [8]; 2B/- SMA mice at P16, combined sexes) was “about 78%”, the “improvement in ability to pass the combined assay over vehicle SMA mice” value (2B/- SMA mice [8]; [14]) was about 40% and the “statistical significance of improvement over vehicle SMA mice in combined test” value (2B/- SMA mice [8]; [14]) was “showed improvement over vehicle SMA mice that did not reach statistical significance”. For the same molecule, the “effect on CMV-driven Renilla luciferase activity” value [2] was “strong effect”, the “changes in SMN transcripts” value [9] was “modest changes in SMN transcripts” and the “Smn exons 7/8 in spinal cord” value ([10]; 2B/+ control mice) was “significant decrease”. For the same molecule, the “Smn transcripts (exons 5/6, exons 7/8, SmnΔ7) in tissues” value ([10]; 2B/- SMA mice, P4-P16 BID i.p.) was “significant increases in Smn transcripts in all tissues”, the “Cave,u Brain” value ([11]; FVB/N mice, 30mpk IP) was 63 nM and the “Cave,u CSF” value ([11]; FVB/N mice, 30mpk IP) was 47 nM. The “Cave,u Plasma” value ([11]; FVB/N mice, 30mpk IP) was 173 nM, the brain penetration [11, 15] was “moderate brain penetration” and the “free drug levels in brain and CSF lower than in plasma” value [11, 15] was “approximately 2.5 fold”. For the same molecule, the “effect on survival of SMA mice compared to vehicle-treated SMA mice” value (2B/- SMA mice [12]) was “statistically significant beneficial effect on survival”.

With `Cc1cc(OCC2CCN(Cc3c(Cl)cccc3Cl)CC2)c2c(N)nc(N)nc2c1` [PF-06802336] the “effect on SMN2-driven firefly luciferase activity” value [4] was “no effect”, the “genes down-regulated by compound (P < 0.05)” value (N2a cells; 24 hours) was 3 genes and the “genes upregulated by compound (P < 0.05)” value (N2a cells; 24 hours) was 4 genes. The “genes differentially expressed compared to DMSO (P < 0.05)” value (N2a cells; 24 hours, 18,409 detectable genes) was 7 genes and the “effect on CMV-driven Renilla luciferase activity” value [2] was “no effect”.

`Cc1cc(COc2cc(F)cc(C#N)c2)c2c(N)nc(N)nc2c1` [PF-06832344] showed an IC50 (recombinant human DcpS) of over 10 µM.

In the case of `CCN1CCN(c2ccc3cc(-c4cn5cc(C)nc(C)c5n4)c(=O)oc3c2)C[C@@H]1C` [SMN-C2], the “effect on SMN2-driven firefly luciferase activity” value [4] is reported as “strong positive effect”, the “effect on CMV-driven Renilla luciferase activity” value [2] is reported as “no effect” and the SMN protein (SMN protein [13]) is reported as “positive SMN response”.
